Measured values taken from US10253015B2, “Pyridinyl quinolinone derivatives as mutant-isocitrate dehydrogenase inhibitors” (FORMA TM2, Inc., priority 2014, dated 2019).
pIC50: −log10 of the molar value.

Key:
[1] = target: IDH1-R132C recombinant protein (Homo sapiens (Human), UniProt O75874, R132C); assay: IDH1-R132C enzymatic assay; format: biochemical; details: inhibition of NADPH consumption, diaphorase/resazurin readout; read-out: Enzyme IDH1 R132C Range IC50
Procedure: (§1) Assays were performed in a 384-well black plate. […] After the plate was centrifuged briefly, an aliquot of 10 μL of 2 mM α-ketoglutarate and 20 μM NADPH solution prepared in assay buffer was then added to each well and the reaction was maintained at 25° C. for 45 minutes. An aliquot of 10 μL of diaphorase solution (0.15 U/mL diaphorase and 30 μM Resazurin in assay buffer) was added to each well. […] The IC50 of a given compound was calculated by fitting the dose response curve of inhibition of NADPH consumption at a given concentration with the four parameter logistic equation.

[2] = target: IDH1-R132H recombinant protein (Homo sapiens (Human), UniProt O75874, R132H); assay: IDH1-R132H enzymatic assay; format: biochemical; details: inhibition of NADPH consumption, diaphorase/resazurin readout; read-out: Enzyme IDH1 R132H Range IC50
Procedure: as §1

[3] = tested on: HCT116 isogenic IDH1-R132C mutant cells; assay: Cellular 2-HG assay using HCT116 mutant IDH1 cells (R132C); format: cell-based; details: Homo sapiens, HCT-116; cellular 2-HG inhibition, 24 hours, RapidFire mass spectrometry; read-out: HCT IDH1 R132C Range IC50
Procedure: HCT116 isogenic IDH1-R132H and IDH1-R132C mutant cells were cultured in growth media (McCoy's 5 A, 10% fetal bovine serum, 1× antibiotic-antimycotic solution and 0.3 mg/mL G418) in 5% CO2 in an incubator at 37° C. To prepare the assay, cells were trypsinized and resuspended in assay media (McCoy's 5 A with no L-glutamine, 10% fetal bovine serum, 1× antibiotic-antimycotic solution and 0.3 mg/mL G418). An aliquot of 10,000 cells/100 μL was transferred to each well of a clear 96-well tissue culture plate. The cells were incubated in 5% CO2 at 37° C. in an incubator overnight to allow for proper cell attachment. An aliquot of 50 μL of compound containing assay media were then added to each well and the assay plate was kept in 5% CO2 at 37° C. in an incubator for 24 hours. The media was then removed from each well and 150 μL of a methanol/water mixture (80/20 v/v) was added to each well. The plates were kept at −80° C. freezer overnight to allow for complete cell lysis. An aliquot of 125 μL of extracted supernatant was analyzed by RapidFire high-throughout-mass spectrometry (Agilent) to determine the cellular 2-HG level. The IC50 of a given compound was calculated by fitting the dose response curve of cellular 2-HG inhibition at a given concentration with the four parameter logistic equation

Chain of IDH1-R132H recombinant protein (O75874 whole entry R132H): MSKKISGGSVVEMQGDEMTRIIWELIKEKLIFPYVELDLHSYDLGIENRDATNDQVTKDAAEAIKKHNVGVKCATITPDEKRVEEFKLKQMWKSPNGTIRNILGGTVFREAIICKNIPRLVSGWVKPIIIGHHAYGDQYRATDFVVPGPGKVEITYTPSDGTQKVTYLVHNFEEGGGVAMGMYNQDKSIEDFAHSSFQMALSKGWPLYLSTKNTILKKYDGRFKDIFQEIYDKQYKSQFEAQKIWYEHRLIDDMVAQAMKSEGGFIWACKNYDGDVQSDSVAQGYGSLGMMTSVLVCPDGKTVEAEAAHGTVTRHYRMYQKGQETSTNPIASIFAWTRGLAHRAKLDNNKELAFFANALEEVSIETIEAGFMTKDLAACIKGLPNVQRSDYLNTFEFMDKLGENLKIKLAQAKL
Chain of IDH1-R132C recombinant protein (O75874 whole entry R132C): as the sequence (O75874 whole entry R132H) above, with H132C counted along it

Structure (SMILES) | pIC50 [1] | pIC50 [2] | pIC50 [3]
C[C@H](Nc1cc(-c2ccnn2C2CCCCO2)ccn1)c1cc2cc(Cl)ccc2[nH]c1=O (stereo partly drawn) [Compound I-47, 6-chloro-3-[(1S)-1-({4-[1-(oxan-2-yl)-1H-pyrazol-5-yl]pyridin-2-yl}amino)ethyl]-1,2-dihydroquinolin-2-one] | 5.00 to 6.00 | 5.00 to 6.00 | –
Cc1cc(-c2ccnc(N[C@@H](C)c3cc4cc(Cl)ccc4[nH]c3=O)c2)n(C)n1 [Compound I-39, 6-chloro-3-[(1S)-1-{[4-(1,3-dimethyl-1H-pyrazol-5-yl)pyridin-2-yl]amino}ethyl]-1,2-dihydroquinolin-2-one] | 6.00 to 7.00 | 5.00 to 6.00 | –
C[C@H](Nc1nccc(NCCO)c1F)c1cc2cc(Cl)ccc2[nH]c1=O [Compound I-36, 6-chloro-3-[(1S)-1-({3-fluoro-4-[(2-hydroxyethyl)amino]pyridin-2-yl}amino)ethyl]-1,2-dihydroquinolin-2-one] | < 5.00 | 5.00 to 6.00 | –
CC(C)Cn1nccc1-c1ccnc(N[C@@H](C)c2cc3cc(Cl)ccc3[nH]c2=O)c1 [Compound I-43, 6-chloro-3-[(1S)-1-({4-[1-(2-methylpropyl)-1H-pyrazol-5-yl]pyridin-2-yl}amino)ethyl]-1,2-dihydroquinolin-2-one] | 5.00 to 6.00 | 5.00 to 6.00 | –
Cc1cc(-c2ccnc(N[C@@H](C)c3cc4cc(Cl)ccc4[nH]c3=O)c2F)n(C)n1 [Compound I-52, 6-chloro-3-[(1S)-1-{[4-(1,3-dimethyl-1H-pyrazol-5-yl)-3-fluoropyridin-2-yl]amino}ethyl]-1,2-dihydroquinolin-2-one] | < 5.00 | 5.00 to 6.00 | –
Cc1cscc1-c1ccnc(N[C@@H](C)c2cc3cc(Cl)ccc3[nH]c2=O)c1 [Compound I-48, 6-chloro-3-[(1S)-1-{[4-(4-methylthiophen-3-yl)pyridin-2-yl]amino}ethyl]-1,2-dihydroquinolin-2-one] | 5.00 to 6.00 | 5.00 to 6.00 | –
COc1cc(N[C@@H](C)c2cc3cc(Cl)ccc3[nH]c2=O)ncc1C#N [Compound I-1, 6-{[(1S)-1-(6-chloro-2-oxo-1,2-dihydroquinolin-3-yl)ethyl]amino}-4-methoxypyridine-3-carbonitrile] | – | – | 6.00 to 7.00
CC(C)n1nccc1-c1ccnc(N[C@@H](C)c2cc3cc(Cl)ccc3[nH]c2=O)c1 [Compound I-44, 6-chloro-3-[(1S)-1-({4-[1-(propan-2-yl)-1H-pyrazol-5-yl]pyridin-2-yl}amino)ethyl]-1,2-dihydroquinolin-2-one] | 5.00 to 6.00 | 5.00 to 6.00 | –
C[C@H](Nc1cc(-c2ccn[nH]2)ccn1)c1cc2cc(Cl)ccc2[nH]c1=O [Compound I-41, 6-chloro-3-[(1S)-1-{[4-(1H-pyrazol-5-yl)pyridin-2-yl]amino}ethyl]-1,2-dihydroquinolin-2-one] | 5.00 to 6.00 | 5.00 to 6.00 | –
COc1cc2[nH]c(=O)c([C@H](C)Nc3ccc(C#N)c(C)n3)cc2cc1Cl [Compound I-23, 6-{[(1S)-1-(6-chloro-7-methoxy-2-oxo-1,2-dihydroquinolin-3-yl)ethyl]amino}-2-methylpyridine-3-carbonitrile] | – | – | 7.00 to 8.00
C[C@H](Nc1nccc(-c2ccnn2C)c1F)c1cc2cc(Cl)ccc2[nH]c1=O [Compound I-53, 6-chloro-3-[(1S)-1-{[3-fluoro-4-(1-methyl-1H-pyrazol-5-yl)pyridin-2-yl]amino}ethyl]-1,2-dihydroquinolin-2-one] | < 5.00 | 5.00 to 6.00 | –
COc1cc(N[C@@H](C)c2cc3cc(Cl)ccc3n(C)c2=O)ncc1C#N [Compound I-2, 6-{[(1S)-1-(6-chloro-1-methyl-2-oxo-1,2-dihydroquinolin-3-yl)ethyl]amino}-4-methoxypyridine-3-carbonitrile] | 5.00 to 6.00 | 5.00 to 6.00 | –
CC(C)Cn1nccc1-c1ccnc(N[C@@H](C)c2cc3cc(Cl)ccc3[nH]c2=O)c1F [Compound I-56, 6-chloro-3-[(1S)-1-({3-fluoro-4-[1-(2-methylpropyl)-1H-pyrazol-5-yl]pyridin-2-yl}amino)ethyl]-1,2-dihydroquinolin-2-one] | < 5.00 | < 5.00 | –
N#Cc1ccnc(NCc2cc3cc(Cl)ccc3[nH]c2=O)c1 [Compound I-72, 2-{[(6-chloro-2-oxo-1,2-dihydroquinolin-3-yl)methyl]amino}pyridine-4-carbonitrile] | – | 5.00 to 6.00 | –
C[C@H](Nc1cc(-c2c[nH]nc2C(F)(F)F)ccn1)c1cc2cc(Cl)ccc2[nH]c1=O [Compound I-50, 6-chloro-3-[(1S)-1-({4-[3-(trifluoromethyl)-1H-pyrazol-4-yl]pyridin-2-yl}amino)ethyl]-1,2-dihydroquinolin-2-one] | < 5.00 | 5.00 to 6.00 | –
C[C@H](Nc1cc(-c2ccnn2C)ccn1)c1cc2cc(Cl)ccc2[nH]c1=O [Compound I-49, 6-chloro-3-[(1S)-1-{[4-(1-methyl-1H-pyrazol-5-yl)pyridin-2-yl]amino}ethyl]-1,2-dihydroquinolin-2-one] | 5.00 to 6.00 | 5.00 to 6.00 | –
Cc1cc(NCCO)cc(N[C@@H](C)c2cc3cc(Cl)ccc3[nH]c2=O)n1 [Compound I-33, 6-chloro-3-[(1S)-1-({4-[(2-hydroxyethyl)amino]-6-methylpyridin-2-yl}amino)ethyl]-1,2-dihydroquinolin-2-one] | – | 5.00 to 6.00 | –
CC(C)[C@H]1COC(=O)N1c1cccc(N[C@H](C)c2cc3cc(Cl)ccc3[nH]c2=O)n1 [Compound I-20, 6-chloro-3-[(1R)-1-({6-[(4S)-2-oxo-4-(propan-2-yl)-1,3-oxazolidin-3-yl]pyridin-2-yl}amino)ethyl]-1,2-dihydroquinolin-2-one] | – | < 5.00 | –
O=c1[nH]c2ccc(Cl)cc2cc1CNc1cccnc1O [Compound I-76, 6-chloro-3-{[(2-hydroxypyridin-3-yl)amino]methyl}-1,2-dihydroquinolin-2-one] | – | 5.00 to 6.00 | –

Continued, in another order:

pIC50 [1] | pIC50 [2] | Structure (SMILES) | pIC50 [3]
5.00 to 6.00 | 6.00 to 7.00 | Cc1cc(NCc2cc3cc(Cl)ccc3[nH]c2=O)ncc1C#N [Compound I-59, 6-{[(6-chloro-2-oxo-1,2-dihydroquinolin-3-yl)methyl]amino}-4-methylpyridine-3-carbonitrile] | –
5.00 to 6.00 | 6.00 to 7.00 | C[C@H](Nc1cc(N2C(=O)OCC2(C)C)ccn1)c1cc2cc(Cl)ccc2[nH]c1=O [Compound I-13, 6-chloro-3-[(1S)-1-{[4-(4,4-dimethyl-2-oxo-1,3-oxazolidin-3-yl)pyridin-2-yl]amino}ethyl]-1,2-dihydroquinolin-2-one] | –
5.00 to 6.00 | > 7.00 | C[C@H](Nc1cc(N2CCOC2=O)ccn1)c1cc2cc(Cl)ccc2[nH]c1=O [Compound I-10, 6-chloro-3-[(1S)-1-{[4-(2-oxo-1,3-oxazolidin-3-yl)pyridin-2-yl]amino}ethyl]-1,2-dihydroquinolin-2-one] | –
5.00 to 6.00 | 6.00 to 7.00 | CC(C)[C@H]1COC(=O)N1c1cccc(N[C@@H](C)c2cc3cc(Cl)ccc3[nH]c2=O)n1 [Compound I-19, 6-chloro-3-[(1S)-1-({6-[(4S)-2-oxo-4-(propan-2-yl)-1,3-oxazolidin-3-yl]pyridin-2-yl}amino)ethyl]-1,2-dihydroquinolin-2-one] | –
6.00 to 7.00 | > 7.00 | CC(=O)Nc1ccnc(N[C@@H](C)c2cc3cc(Cl)ccc3[nH]c2=O)c1F [Compound I-34, N-(2-{[(1S)-1-(6-chloro-2-oxo-1,2-dihydroquinolin-3-yl)ethyl]amino}-3-fluoropyridin-4-yl)acetamide] | –
6.00 to 7.00 | > 7.00 | Cc1nc(NCc2cc3cc(Cl)c(OCCN4CCN(S(C)(=O)=O)CC4)cc3[nH]c2=O)ccc1C#N [Compound I-85, 6-[({6-chloro-7-[2-(4-methanesulfonylpiperazin-1-yl)ethoxy]-2-oxo-1,2-dihydroquinolin-3-yl}methyl)amino]-2-methylpyridine-3-carbonitrile] | –
5.00 to 6.00 | 6.00 to 7.00 | CC(Nc1cc(N2C(=O)OC[C@@H]2C(C)C)ccn1)c1cc2cc(Cl)ccc2[nH]c1=O (stereo partly drawn) [Compound I-18, 6-chloro-3-[1-({4-[(4S)-2-oxo-4-(propan-2-yl)-1,3-oxazolidin-3-yl]pyridin-2-yl}amino)ethyl]-1,2-dihydroquinolin-2-one] | –
< 5.00 | 6.00 to 7.00 | N#Cc1ccc(NCc2cc3cc(Cl)ccc3[nH]c2=O)nc1 [Compound I-67, 6-{[(6-chloro-2-oxo-1,2-dihydroquinolin-3-yl)methyl]amino}pyridine-3-carbonitrile] | –
